Laboratory results taken from ChEMBL document CHEMBL1671626, “In vitro profiling of ceftaroline against a collection of recent bacterial clinical isolates from across the United States” (2008).
≈ marks a conversion by molar mass, not a printed value.

Experiments:
Type in all cases: functional
Citrobacter freundii [1] = assay: Antibacterial activity against ceftazidime-susceptible Citrobacter freundii assessed as resistant isolates by CLSI M7-A7 broth microdilution method
Serratia marcescens [2] = assay: Antibacterial activity against ceftazidime-susceptible Serratia marcescens by CLSI M7-A7 broth microdilution method
Proteus mirabilis [3] = assay: Antibacterial activity against ceftazidime-susceptible Proteus mirabilis assessed as susceptible isolates by CLSI M7-A7 broth microdilution method
Enterobacter cloacae [4] = assay: Antibacterial activity against ceftazidime-nonsusceptible Enterobacter cloacae by CLSI M7-A7 broth microdilution method
Klebsiella pneumoniae [5] = assay: Antibacterial activity against ceftazidime-susceptible Klebsiella pneumoniae by CLSI M7-A7 broth microdilution method
Proteus mirabilis [6] = assay: Antibacterial activity against ceftazidime-susceptible Proteus mirabilis by CLSI M7-A7 broth microdilution method
Klebsiella pneumoniae [7] = assay: Antibacterial activity against ceftazidime-susceptible Klebsiella pneumoniae assessed as resistant isolates by CLSI M7-A7 broth microdilution method
Proteus mirabilis [8] = assay: Antibacterial activity against ceftazidime-susceptible Proteus mirabilis assessed as resistant isolates by CLSI M7-A7 broth microdilution method
Enterobacter cloacae [9] = assay: Antibacterial activity against ceftazidime-susceptible Enterobacter cloacae assessed as susceptible isolates by CLSI M7-A7 broth microdilution method
Escherichia coli [10] = assay: Antibacterial activity against ceftazidime-nonsusceptible Escherichia coli assessed as susceptible isolates by CLSI M7-A7 broth microdilution method
Enterobacter cloacae [11] = assay: Antibacterial activity against ceftazidime-nonsusceptible Enterobacter cloacae assessed as susceptible isolates by CLSI M7-A7 broth microdilution method
Acinetobacter [12] = assay: Antibacterial activity against multidrug-resistant Acinetobacter assessed as resistant isolates by CLSI M7-A7 broth microdilution method
Klebsiella pneumoniae [13] = assay: Antibacterial activity against ceftazidime-nonsusceptible Klebsiella pneumoniae assessed as resistant isolates by CLSI M7-A7 broth microdilution method
Escherichia coli [14] = assay: Antibacterial activity against ceftazidime-nonsusceptible Escherichia coli assessed as resistant isolates by CLSI M7-A7 broth microdilution method
Providencia sp. [15] = assay: Antibacterial activity against ceftazidime-susceptible Providencia sp. assessed as susceptible isolates by CLSI M7-A7 broth microdilution method
Acinetobacter [16] = assay: Antibacterial activity against multidrug-resistant Acinetobacter assessed as susceptible isolates by CLSI M7-A7 broth microdilution method
Haemophilus influenzae [17] = assay: Antibacterial activity against beta lactamase-positive Haemophilus influenzae assessed as resistant isolates by CLSI M7-A7 broth microdilution method
Enterobacteriaceae [18] = assay: Antibacterial activity against ceftazidime-susceptible Enterobacteriaceae by CLSI M7-A7 broth microdilution method
Escherichia coli [19] = assay: Antibacterial activity against ceftazidime-susceptible Escherichia coli assessed as susceptible isolates by CLSI M7-A7 broth microdilution method
Haemophilus influenzae [20] = assay: Antibacterial activity against beta lactamase-positive Haemophilus influenzae by CLSI M7-A7 broth microdilution method
Providencia sp. [21] = assay: Antibacterial activity against ceftazidime-susceptible Providencia sp. assessed as resistant isolates by CLSI M7-A7 broth microdilution method
Providencia sp. [22] = assay: Antibacterial activity against ceftazidime-susceptible Providencia sp. by CLSI M7-A7 broth microdilution method
Klebsiella pneumoniae [23] = assay: Antibacterial activity against ceftazidime-susceptible Klebsiella pneumoniae assessed as susceptible isolates by CLSI M7-A7 broth microdilution method
Enterobacteriaceae [24] = assay: Antibacterial activity against ceftazidime-nonsusceptible Enterobacteriaceae assessed as resistant isolates by CLSI M7-A7 broth microdilution method
Haemophilus influenzae [25] = assay: Antibacterial activity against beta lactamase-negative Haemophilus influenzae by CLSI M7-A7 broth microdilution method
Serratia marcescens [26] = assay: Antibacterial activity against ceftazidime-susceptible Serratia marcescens assessed as susceptible isolates by CLSI M7-A7 broth microdilution method
Acinetobacter [27] = assay: Antibacterial activity against imipenem-susceptible Acinetobacter assessed as susceptible isolates by CLSI M7-A7 broth microdilution method
Enterobacteriaceae [28] = assay: Antibacterial activity against ceftazidime-susceptible Enterobacteriaceae assessed as susceptible isolates by CLSI M7-A7 broth microdilution method
Acinetobacter [29] = assay: Antibacterial activity against multidrug-resistant Acinetobacter by CLSI M7-A7 broth microdilution method
Escherichia coli [30] = assay: Antibacterial activity against ceftazidime-nonsusceptible Escherichia coli by CLSI M7-A7 broth microdilution method
Enterobacteriaceae [31] = assay: Antibacterial activity against ceftazidime-nonsusceptible Enterobacteriaceae by CLSI M7-A7 broth microdilution method
Haemophilus influenzae [32] = assay: Antibacterial activity against beta lactamase-positive Haemophilus influenzae assessed as susceptible isolates by CLSI M7-A7 broth microdilution method
Klebsiella pneumoniae [33] = assay: Antibacterial activity against ceftazidime-nonsusceptible Klebsiella pneumoniae assessed as susceptible isolates by CLSI M7-A7 broth microdilution method
Haemophilus influenzae [34] = assay: Antibacterial activity against beta lactamase-negative Haemophilus influenzae assessed as susceptible isolates by CLSI M7-A7 broth microdilution method
Escherichia coli [35] = assay: Antibacterial activity against ceftazidime-susceptible Escherichia coli assessed as resistant isolates by CLSI M7-A7 broth microdilution method
Acinetobacter [36] = assay: Antibacterial activity against imipenem-susceptible Acinetobacter by CLSI M7-A7 broth microdilution method
Escherichia coli [37] = assay: Antibacterial activity against ceftazidime-susceptible Escherichia coli by CLSI M7-A7 broth microdilution method
Enterobacteriaceae [38] = assay: Antibacterial activity against ceftazidime-nonsusceptible Enterobacteriaceae assessed as susceptible isolates by CLSI M7-A7 broth microdilution method
Morganella morganii [39] = assay: Antibacterial activity against ceftazidime-susceptible Morganella morganii assessed as resistant isolates by CLSI M7-A7 broth microdilution method
Citrobacter freundii [40] = assay: Antibacterial activity against ceftazidime-susceptible Citrobacter freundii assessed as susceptible isolates by CLSI M7-A7 broth microdilution method
Morganella morganii [41] = assay: Antibacterial activity against ceftazidime-susceptible Morganella morganii assessed as susceptible isolates by CLSI M7-A7 broth microdilution method
Enterobacter cloacae [42] = assay: Antibacterial activity against ceftazidime-susceptible Enterobacter cloacae by CLSI M7-A7 broth microdilution method
Serratia marcescens [43] = assay: Antibacterial activity against ceftazidime-susceptible Serratia marcescens assessed as resistant isolates by CLSI M7-A7 broth microdilution method
Citrobacter freundii [44] = assay: Antibacterial activity against ceftazidime-susceptible Citrobacter freundii by CLSI M7-A7 broth microdilution method
Haemophilus influenzae [45] = assay: Antibacterial activity against beta lactamase-negative Haemophilus influenzae assessed as resistant isolates by CLSI M7-A7 broth microdilution method
Enterobacter cloacae [46] = assay: Antibacterial activity against ceftazidime-susceptible Enterobacter cloacae assessed as resistant isolates by CLSI M7-A7 broth microdilution method
Citrobacter freundii [47] = assay: Antibacterial activity against ceftazidime-nonsusceptible Citrobacter freundii assessed as resistant isolates by CLSI M7-A7 broth microdilution method
Klebsiella pneumoniae [48] = assay: Antibacterial activity against ceftazidime-nonsusceptible Klebsiella pneumoniae by CLSI M7-A7 broth microdilution method
Acinetobacter [49] = assay: Antibacterial activity against imipenem-susceptible Acinetobacter assessed as resistant isolates by CLSI M7-A7 broth microdilution method
Citrobacter freundii [50] = assay: Antibacterial activity against ceftazidime-nonsusceptible Citrobacter freundii by CLSI M7-A7 broth microdilution method
Citrobacter freundii [51] = assay: Antibacterial activity against ceftazidime-nonsusceptible Citrobacter freundii assessed as susceptible isolates by CLSI M7-A7 broth microdilution method
Morganella morganii [52] = assay: Antibacterial activity against ceftazidime-susceptible Morganella morganii by CLSI M7-A7 broth microdilution method
Enterobacteriaceae [53] = assay: Antibacterial activity against ceftazidime-susceptible Enterobacteriaceae assessed as resistant isolates by CLSI M7-A7 broth microdilution method
Enterobacter cloacae [54] = assay: Antibacterial activity against ceftazidime-nonsusceptible Enterobacter cloacae assessed as resistant isolates by CLSI M7-A7 broth microdilution method

Structure (SMILES): CCN1CCN(C(=O)N[C@@H](C(=O)N[C@@H]2C(=O)N3[C@@H]2SC(C)(C)[C@@H]3C(=O)O)c2ccccc2)C(=O)C1=O [PIPERACILLIN]
- Activity (Citrobacter freundii [1]): 0%
- MIC50 (Serratia marcescens [2]): 2 mg/L (≈ 3.86 µM)
- MIC90 (Serratia marcescens [2]): 16 mg/L (≈ 30.9 µM)
- Activity (Proteus mirabilis [3]): 100%
- MIC50 (Enterobacter cloacae [4]): > 64 mg/L
- MIC90 (Enterobacter cloacae [4]): > 64 mg/L
- MIC50 (Klebsiella pneumoniae [5]): 2 mg/L (≈ 3.86 µM)
- MIC90 (Klebsiella pneumoniae [5]): 8 mg/L (≈ 15.5 µM)
- MIC (Proteus mirabilis [6]): ≤ 0.5 mg/L
- MIC50 (Proteus mirabilis [6]): ≤ 0.5 mg/L
- MIC90 (Proteus mirabilis [6]): 1 mg/L (≈ 1.93 µM)
- Activity (Klebsiella pneumoniae [7]): 0.5%
- Activity (Proteus mirabilis [8]): 0%
- Activity (Enterobacter cloacae [9]): 98%
- Activity (Escherichia coli [10]): 68.3%
- Activity (Enterobacter cloacae [11]): 25.7%
- Activity (Acinetobacter [12]): 87.5%
- Activity (Klebsiella pneumoniae [13]): 62.1%
- Activity (Escherichia coli [14]): 17.5%
- Activity (Providencia sp. [15]): 92.6%
- Activity (Acinetobacter [16]): 0%
- Activity (Haemophilus influenzae [17]): 1%
- MIC50 (Enterobacteriaceae [18]): 2 mg/L (≈ 3.86 µM)
- MIC90 (Enterobacteriaceae [18]): 4 mg/L (≈ 7.73 µM)
- Activity (Escherichia coli [19]): 96.5%
- MIC (Haemophilus influenzae [20]): ≤ 0.03 mg/L
- MIC50 (Haemophilus influenzae [20]): ≤ 0.03 mg/L
- MIC90 (Haemophilus influenzae [20]): 0.06 mg/L (≈ 0.116 µM)
- Activity (Providencia sp. [21]): 3.7%
- MIC50 (Providencia sp. [22]): 2 mg/L (≈ 3.86 µM)
- MIC90 (Providencia sp. [22]): 16 mg/L (≈ 30.9 µM)
- Activity (Klebsiella pneumoniae [23]): 97.1%
- Activity (Enterobacteriaceae [24]): 38.6%
- MIC (Haemophilus influenzae [25]): ≤ 0.03 mg/L
- MIC50 (Haemophilus influenzae [25]): ≤ 0.03 mg/L
- MIC90 (Haemophilus influenzae [25]): 0.06 mg/L (≈ 0.116 µM)
- Activity (Serratia marcescens [26]): 93.2%
- Activity (Acinetobacter [27]): 68.1%
- Activity (Enterobacteriaceae [28]): 97%
- MIC50 (Acinetobacter [29]): > 64 mg/L
- MIC50 (Escherichia coli [30]): 16 mg/L (≈ 30.9 µM)
- MIC90 (Escherichia coli [30]): > 64 mg/L
- MIC50 (Enterobacteriaceae [31]): 32 mg/L (≈ 61.8 µM)
- MIC90 (Enterobacteriaceae [31]): > 64 mg/L
- Activity (Haemophilus influenzae [32]): 99%
- Activity (Klebsiella pneumoniae [33]): 24.2%
- Activity (Haemophilus influenzae [34]): 100%
- Activity (Escherichia coli [35]): 2.3%
- MIC50 (Acinetobacter [36]): 8 mg/L (≈ 15.5 µM)
- MIC90 (Acinetobacter [36]): > 64 mg/L
- MIC50 (Escherichia coli [37]): 1 mg/L (≈ 1.93 µM)
- MIC90 (Escherichia coli [37]): 4 mg/L (≈ 7.73 µM)
- Activity (Enterobacteriaceae [38]): 43.2%
- Activity (Morganella morganii [39]): 0%
- Activity (Citrobacter freundii [40]): 100%
- Activity (Morganella morganii [41]): 100%
- MIC50 (Enterobacter cloacae [42]): 2 mg/L (≈ 3.86 µM)
- MIC90 (Enterobacter cloacae [42]): 4 mg/L (≈ 7.73 µM)
- Activity (Serratia marcescens [43]): 3.4%
- MIC50 (Citrobacter freundii [44]): 2 mg/L (≈ 3.86 µM)
- MIC90 (Citrobacter freundii [44]): 4 mg/L (≈ 7.73 µM)
- Activity (Haemophilus influenzae [45]): 0%
- Activity (Enterobacter cloacae [46]): 2%
- Activity (Citrobacter freundii [47]): 39.4%
- MIC50 (Klebsiella pneumoniae [48]): > 64 mg/L
- MIC90 (Klebsiella pneumoniae [48]): > 64 mg/L
- Activity (Acinetobacter [49]): 21.3%
- MIC50 (Citrobacter freundii [50]): 32 mg/L (≈ 61.8 µM)
- MIC90 (Citrobacter freundii [50]): > 64 mg/L
- Activity (Citrobacter freundii [51]): 24.2%
- MIC (Morganella morganii [52]): ≤ 0.5 mg/L
- MIC50 (Morganella morganii [52]): ≤ 0.5 mg/L
- MIC90 (Morganella morganii [52]): 1 mg/L (≈ 1.93 µM)
- Activity (Enterobacteriaceae [53]): 1.6%
- Activity (Enterobacter cloacae [54]): 54.3%
